Results from US8748482B2, “Lubiprostone crystal, the use and the method for the preparation thereof” (Shanghai Techwell Biopharmaceutical Co., Ltd, priority 2008, dated 2014).

Test: Comparison of the stability: samples sealed and placed at 40° C. for 7 days, then impurities analysed
Assay type: physicochemical
Details: for Initial Product Amount: before storage (initial); for Product Amount (after 7 days at 40° C.): sealed
Method: In the present Example, the stabilities of the oily lubiprostone (prepared according to Example 1) and the final products of Example 1 and Example 2 (crystal samples) were tested, and the results of the tests were compared. Oily lubiprostone, the sample of Example 1, and the sample of Example 2 were separately sealed and placed at 40° C. for 7 days. After completion, the amount of the impurities was analyzed.

| Initial Product Amount [%] | Product Amount (after 7 days at 40° C.) [%] | stability (conclusion in words) (based on the data of Table 2 (sealed, 40° C., 7 days)) | Structure (SMILES) |
| --- | --- | --- | --- |
| 99.9 | 95.8 | – | CCCCC(F)(F)[C@@]1(O)CCC2[C@@H](CC(=O)[C@@H]2CCCCCCC(=O)O)O1 (single isomer, unassigned; (-)) [Oily lubiprostone, reference compound] |
| 100.0 | 99.9 | – | CCCCC(F)(F)[C@@]1(O)CCC2[C@@H](CC(=O)[C@@H]2CCCCCCC(=O)O)O1 (single isomer, unassigned; (-)) [Example 1] |
| – | – | excellent stability | CCCCC(F)(F)[C@@]1(O)CCC2[C@@H](CC(=O)[C@@H]2CCCCCCC(=O)O)O1 (single isomer, unassigned; (-)) [lubiprostone crystal] |
| 100.0 | 99.9 | – | CCCCC(F)(F)[C@@]1(O)CCC2[C@@H](CC(=O)[C@@H]2CCCCCCC(=O)O)O1 (single isomer, unassigned; (-)) [Example 2] |
